Experimental data reported in patent US20050256302A1, “Novel peptides having camp producing activity” (Japan Science and Technology Agency, priority 2002, published 2005).
Where a SMILES comes first, the peptide text is derived from it. Bridges are numbered along the chain shown (N, C = ends).

Experiments:
LLC-PK1 cells = assay: Incorporation of calcium ion (45Ca) in LLC-PK1 cells; format: cell-based, pig; conditions: 10 minutes
Method: The results are shown in FIG. 5 (incorporation of sodium ion in the absence of EIPA), FIG. 6 (incorporation of sodium ion in the presence of EIPA) and FIG. 7 (incorporation of calcium ion).
Incorporation of calcium ion was conducted as follows. Thus, LLC-PK1 cells were washed with a Hanks' solution (calcium-free Hanks' solution) where concentration of calcium chloride was lowered to 0 mM. Calcium chloride (^45Ca) was added to a calcium-free Hanks' solution on the cells together with CRSP, the cells were washed after 10 minutes to completely wash out ^45Ca contained in the solution outside the cells and radioactivity incorporated into the cells was measured by a liquid scintillation counter.

[1] = Blood pressure of anesthetized rats; format: in vivo; conditions: rat, 16 nmol/kg from jugular vein
Method: CRSP corresponding to an amount of 16 nmol/kg dissolved in a physiological saline solution was administered at a time within a short period from jugular vein of rat under an anesthetized condition and calcium concentration in the plasma and blood pressure were measured. The results are shown in FIG. 13 (changes in calcium concentration in blood by administration of CRSP) and FIG. 14 (changes in blood pressure by administration of CRSP).
CRSP corresponding to the amount of 16 nmol/kg dissolved in a physiological saline solution was administered at a time within short period from […] of rat under an anesthetized condition.

[2] = system: amyloride-sensitive Na/H co-transporter on LLC-PK1 cells; assay: Incorporation of sodium ion (22Na) in LLC-PK1 cells, with or without EIPA; format: cell-based, pig; conditions: 10 minutes
Method: A culture solution of LLC-PK1 cells was substituted with a Hanks' choline chloride solution, CRSP and sodium chloride having a predetermined radioactivity (^22Na) were added thereto so as to make the final concentration 0 M, 10^−8 M, 10^−7 M and 10^−6 M each, the cells were washed after 10 minutes so that ^22Na contained in the solution outside the cells was completely removed and radioactivity incorporated into the cells was measured by a gamma-counter. Similarly, a culture solution of LLC-PK1 cells was substituted with a Hanks' choline chloride solution, sodium chloride having a predetermined radioactivity (^22Na) as well as CRSP and an amyloride derivative (5-(N-ethyl-N-isopropyl)-amiloride) (EIPA) which is an Na/H co-transporter inhibitor were added thereto so as to make the final concentration 0 M CRSP+0 M EIPA, 10^−6 M CRSP+0 M EIPA, 10^−6 M CRSP+10^−8 M EIPA, 10^−6 M CRSP+10^−7 M EIPA, 10^−6 M CRSP+10^−6 M EIPA and 0 M CRSP+10^−6 M EIPA each. Cells were washed after 10 minutes so that ^22Na contained in the outer solution of the cells was completely removed and radioactivity incorporated into the cells was measured by a gamma-counter.
The results are shown in FIG. 5 (incorporation of sodium ion in the absence of EIPA), FIG. 6 (incorporation of sodium ion in the presence of EIPA) and FIG. 7 (incorporation of calcium ion). […]

[3] = target: T1, Pig calcitonin receptor (CTR) (Sus scrofa, UniProt P25117); assay: cAMP production in opossum renal epithelial cells (OK cells) expressing CTR; format: cell-based; conditions: CTR expressed in OK cells
T1 construct: expressed in transfected cells; host or cells: COS-7 (given as rhesus monkey renal cells), vector pcDNA 3.1
T1 sequence (P25117 30-498): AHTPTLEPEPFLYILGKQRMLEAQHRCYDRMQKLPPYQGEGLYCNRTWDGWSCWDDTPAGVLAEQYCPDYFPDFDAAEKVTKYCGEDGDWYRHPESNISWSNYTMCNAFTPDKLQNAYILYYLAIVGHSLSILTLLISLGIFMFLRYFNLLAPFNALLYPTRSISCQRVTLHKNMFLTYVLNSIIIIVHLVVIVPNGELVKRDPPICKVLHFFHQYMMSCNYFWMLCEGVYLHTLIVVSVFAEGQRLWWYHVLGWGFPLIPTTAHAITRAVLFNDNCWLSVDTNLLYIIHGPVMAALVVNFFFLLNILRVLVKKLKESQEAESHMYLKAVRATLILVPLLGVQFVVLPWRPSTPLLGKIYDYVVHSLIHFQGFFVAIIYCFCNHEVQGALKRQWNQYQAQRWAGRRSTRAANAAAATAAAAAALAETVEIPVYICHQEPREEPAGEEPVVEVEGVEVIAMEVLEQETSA
Method: Pig calcitonin receptor (CTR) was introduced into a mammalian expression vector pcDNA 3.1, expressed in rhesus monkey renal cells (COS-7) and production amount of cAMP by stimulation of CRSP was measured by radioimmunoassay. Similarly, CTR was expressed in opossum renal cells (OK cells) and production amount of cAMP by stimulation of CRSP was measured by radioimmunoassay while incorporation of sodium ion was measured by measuring the incorporation of sodium chloride having radioactivity (^22Na) by a gamma-counter. The results are shown in FIG. 10 (changes in cAMP productivity by CRSP stimulation in cells (COS-7) where calcitonin receptor was expressed in a genetic engineering manner), FIG. 11 (changes in cAMP productivity in opossum renal epithelial cells where pig calcitonin receptor (CTR) was expressed) and FIG. 12 (changes in incorporation of sodium ion in opossum renal epithelial cells where pig calcitonin receptor (CTR) was expressed).
Similarly, CTR was expressed in opossum renal cells (OK cells) and production amount of cAMP by CRSP stimulation was measured by radioimmunoassay while incorporation of sodium ion was measured by incorporation of radioactive sodium chloride (^22Na) using a gamma-counter.

CSCC[C@H](NC(=O)[C@H](CCCCN)NC(=O)[C@@H](NC(=O)[C@@H]1CCCN1C(=O)[C@H](CC(C)C)NC(=O)[C@H](CC(C)C)NC(=O)[C@H](CC(N)=O)NC(=O)[C@H](CO)NC(=O)[C@H](CCCNC(=N)N)NC(=O)[C@@H](NC(=O)[C@H](CCSC)NC(=O)[C@H](CO)NC(=O)CNC(=O)[C@H](CO)NC(=O)[C@H](CCCNC(=N)N)NC(=O)[C@H](CO)NC(=O)[C@H](CC(C)C)NC(=O)[C@H](CC(C)C)NC(=O)CNC(=O)[C@@H](NC(=O)[C@H](CC(C)C)NC(=O)[C@H](CCCNC(=N)N)NC(=O)[C@H](Cc1c[nH]cn1)NC(=O)[C@@H](NC(=O)[C@H](CCSC)NC(=O)[C@@H]1CSSC[C@H](NC(=O)[C@@H](N)CO)C(=O)N[C@@H](CC(N)=O)C(=O)N[C@@H]([C@@H](C)O)C(=O)N[C@@H](C)C(=O)N[C@@H]([C@@H](C)O)C(=O)N1)[C@@H](C)O)C(C)C)C(C)C)[C@@H](C)O)C(=O)NCC(=O)N[C@@H](Cc1ccccc1)C(=O)N[C@@H](CCCCN)C(=O)N[C@H](C(=O)N[C@@H](Cc1ccccc1)C(=O)NCC(N)=O)C(C)C [CRSP] (H-SCNTATCMTHRLVGLLSRSGSMVRSNLLPTKMGFKVFG-NH2; disulfide 2-7)
incorporation of calcium into cells (LLC-PK1 cells): suppressed
blood pressure [1]: no apparent change
incorporation of sodium into cells ([2]; 10^-8 to 10^-6 M): promoted
amyloride-sensitive Na/H co-transporter [2]: activated
intracellular adenylyl cyclase activity [3]: increases
